Values joined by “and” are separate entries in the source; they are usually repeats but may differ in a detail not shown here. Equal entries are not always repeated. Where two headings read alike, the source gives them in different places.
Legend:
LS 174T = assay: cell viability in human CRC cell line LS 174T; assay type: cell-based; details: Homo sapiens, LS174T, 96 h, 4 d, read-out: LS 174T Cell viability (%)
HT-29 = assay: cell viability in human CRC cell line HT-29; assay type: cell-based; details: ED Fig. 9h, replicates; for viability at 0.0137 µM / viability at 0.0412 µM / viability at 0.1235 µM / viability at 0.3704 µM / viability at 1.1111 µM / viability at 3.3333 µM / viability at 10 µM: Homo sapiens, read-out: HT-29 Cell viability (%); for viability at 0.0137 µM: HT-29, 0.0137 µM; for viability at 0.0412 µM: HT-29, 0.0412 µM; for viability at 0.1235 µM: HT-29, 0.1235 µM; for viability at 0.3704 µM: HT-29, 0.3704 µM; for viability at 1.1111 µM: HT-29, 1.1111 µM; for viability at 3.3333 µM: HT-29, 3.3333 µM; for viability at 10 µM: HT-29, 10.0000 µM
Procedure: To generate KAP^2D cells, KAP organoids were isolated from Matrigel, fragmented by mechanical dissociation and plated without any extracellular matrix on common cell culture dishes. Phoenix-Eco packaging cells (CRL-3214), HCT-15 (CCL-225), HCT 116 (CCL-247), COLO 205 (CCL-222), LS 174T (CL-188), RKO (CRL-2577) and HT-29 (HTB-38) were obtained from the American Type Culture Collection. The cells were cultured at 37 °C and 7% CO2 with RPMI (KAP^2D cells) or DMEM (other cell lines), supplemented with 10% FBS and penicillin–streptomycin. KAP^2D cells were authenticated using PCR (Kras locus and Trp53 locus). Phoenix-Eco packaging cells and HCT-15, HCT 116, COLO 205, LS 174T, RKO and HT-29 cells were authenticated by the provider using short tandem repeat profiling. No commonly misidentified cell lines were used. Mycoplasma contamination was excluded by a PCR-based analysis.
For in vitro treatment studies, organoids were mechanically dissociated and digested using TrypLE supplemented with 100 µg ml^−1 DNaseI and 10.5 µM Y-27632 dihydrochloride (Invitrogen) at 37 °C. A total of 1,000–2,000 single cells were plated per well in white 96-well plates (Greiner) in culture medium containing 10% GFR Matrigel or Cultrex BME. The treatment with doxycycline (5 µg ml^−1), pharmacological inhibitors or corresponding volumes of DMSO was started 24 h after plating. Doxycycline was obtained from Sigma-Aldrich. […] Cell viability was measured by means of CellTiter-Glo 3D or CellTiter-Glo 2.0 reagent (Promega) according to the manufacturers’ instructions and the Infinite M Plex reader (Tecan, i-control version 3.9.1 software). Results were normalized to vehicle (DMSO) or to shNC. For cell-doubling assays, the cell number was quantified at the corresponding time points using Guava EasyCyte flow cytometer (Luminex, CytoSoft v5.2 software).

KAP^2D cells = assay: EdU incorporation in KAP^2D cells; assay type: cell-based, mouse; details: replicates, experiment and repetition
Procedure: Immunofluorescence staining on cells and organoids was performed on glass coverslips or tissue culture chambers (Sarstedt). Organoids were plated in medium containing 10% Matrigel or Cultrex BME. The cultures were fixed with 4% paraformaldehyde and stained with specific antibodies and DAPI (Vector Labs). All used antibodies and dilutions are listed in the Nature Portfolio Reporting Summary. For analyzing DNA synthesis, the Molecular Probes Click-iT EdU Alexa Fluor 555 kit was used 24 h after EdU incorporation with DAPI counterstaining. SA-β-Gal staining of cells was performed in cell culture dishes (cells) or tissue culture chambers (organoids) after fixation with 0.5% glutaraldehyde as described above. Human cultures were incubated with X-Gal solution at pH 6.0 for ~4 h.

subcutaneous KAP CRCs = assay: treatment of subcutaneous KAP tumors in wild-type mice; assay type: in vivo, mouse; details: for Tumor volume (mm³): Fig. 1j, individual tumors
Procedure: Subcutaneous injection, splenic seeding or cecum injection of organoids was performed in 8–10-week-old C57BL/6 N/Crl, Rag2^−/− (B6.Cg-Rag2^tm1.1Cgn/J), or CB17 Scid beige (CB17.Cg-Prkdc^scidLyst^bg-J/Crl) mice, obtained from Charles River. The organoids were dissociated into single cells, washed with PBS and injected in a 1:1 mixture of PBS and Matrigel. For murine organoids, 1 × 10^5 cells were injected into the left and right flanks or the spleen capsule and 2 × 10^6 cells were injected into the cecum wall. For human organoids, 4 × 10^5 cells were injected into the flanks of CB17 Scid beige mice. For splenic seeding and cecum injection, mice were anaesthetized using ketamine (100 mg kg^−1, intraperitoneally) and xylazin (10 mg/kg, intraperitoneally) in NaCl and a small laparotomy below the thorax was performed.
No mice were excluded during treatment studies.

## O=C(NCCN1CCOCC1)c1ccc2c(c1)C(=O)c1ccc(Nc3ccc(F)c(NC(=O)c4ccccc4)c3)cc1CC2 [Compound 1639]
LS 174T; 1.1111 µM
  viability at 1.1111 µM: 77.1%
LS 174T; 3.3333 µM
  viability at 3.3333 µM: 68.9%
LS 174T; 10.0000 µM
  viability at 10 µM: 24.4%
HT-29; 0.0137 µM, Repetition
  HT-29 Cell viability (%): 102.28% and 94.62%
HT-29; 0.0137 µM, first experiment
  HT-29 Cell viability (%): 94.47% and 95.05%
HT-29; 0.0412 µM, Repetition
  HT-29 Cell viability (%): 101.53% and 96.63%
HT-29; 0.0412 µM, first experiment
  HT-29 Cell viability (%): 94.54% and 96.05%
HT-29; 0.1235 µM, Repetition
  HT-29 Cell viability (%): 102.40% and 91.02%
HT-29; 0.1235 µM, first experiment
  HT-29 Cell viability (%): 88.93% and 89.95%
HT-29; 0.3704 µM, Repetition
  HT-29 Cell viability (%): 96.43% and 88.31%
HT-29; 0.3704 µM, first experiment
  HT-29 Cell viability (%): 89.51% and 89.95%
HT-29; 1.1111 µM, Repetition
  HT-29 Cell viability (%): 89.29% and 79.16%
HT-29; 1.1111 µM, first experiment
  HT-29 Cell viability (%): 95.25% and 92.43%
HT-29; 3.3333 µM, Repetition
  HT-29 Cell viability (%): 53.45% and 49.18%
HT-29; 3.3333 µM, first experiment
  HT-29 Cell viability (%): 66.80% and 71.86%
HT-29; 10.0000 µM, Repetition
  HT-29 Cell viability (%): 3.09% and 3.77%
HT-29; 10.0000 µM, first experiment
  HT-29 Cell viability (%): 4.59% and 5.12%
HT-29; Repetition
  viability at 0.0137 µM: 102%
  viability at 0.0412 µM: 105%
  viability at 0.1235 µM: 104%
  viability at 0.3704 µM: 95.8%
  viability at 1.1111 µM: 88.5%
  viability at 3.3333 µM: 52.9%
  viability at 10 µM: 3.22%
HT-29; first experiment
  viability at 0.0137 µM: 94.8%
  viability at 0.0412 µM: 93.8%
  viability at 0.1235 µM: 88.1%
  viability at 0.3704 µM: 88.9%
  viability at 1.1111 µM: 92.4%
  viability at 3.3333 µM: 70.7%
  viability at 10 µM: 4.71%
KAP^2D cells; Fig. 4j
  EdU+ cells: 87.08% and 89.84% and 80.20% and 80.71% and 77.64% and 85.43% and 87.34% and 80.43%
KAP^2D cells; Fig. 5b
  EdU+ cells: 16.24% and 18.58% and 17.71% and 16.69% and 15.27% and 21.79% and 19.62% and 11.52%
Subcutaneous KAP CRCs; 0 d of treatment, single tumors, Fig. 3k
  Tumor volume: 56.0 mm³ and 75.0 mm³ and 48.0 mm³ and 80.0 mm³ and 62.5 mm³ and 40.0 mm³ and 64.0 mm³
Subcutaneous KAP CRCs; 20 mg kg^−1 daily, oral gavage
  subcutaneous KAP tumor development (in words): decelerated CRC development
Subcutaneous KAP CRCs; day 0 of treatment
  Tumor volume (mm³): 56.0 mm³ (2×) and 75.0 mm³ and 48.0 mm³ (3×) and 80.0 mm³ and 62.5 mm³ and 40.0 mm³ and 64.0 mm³
Subcutaneous KAP CRCs; day 2 of treatment
  Tumor volume (mm³): 75.0 mm³ (2×) and 87.5 mm³ and 62.5 mm³ and 125.0 mm³ and 56.0 mm³ (2×) and 72.0 mm³ and 48.0 mm³ and 64.0 mm³
Subcutaneous KAP CRCs; day 4 of treatment
  Tumor volume (mm³): 126.0 mm³ (2×) and 64.0 mm³ and 125.0 mm³ and 72.0 mm³ and 75.0 mm³ and 62.5 mm³ (2×) and 80.0 mm³ and 100.0 mm³
Subcutaneous KAP CRCs; day 6 of treatment
  Tumor volume (mm³): 144.0 mm³ (2×) and 75.0 mm³ (2×) and 112.5 mm³ and 80.0 mm³ and 62.5 mm³ and 56.0 mm³ and 87.5 mm³ and 126.0 mm³
Subcutaneous KAP CRCs; day 8 of treatment
  Tumor volume (mm³): 144.0 mm³ (2×) and 162.0 mm³ and 87.5 mm³ (2×) and 112.5 mm³ and 75.0 mm³ (3×) and 100.0 mm³
Subcutaneous KAP CRCs; day 10 of treatment
  Tumor volume (mm³): 162.0 mm³ and 180.0 mm³ and 87.5 mm³ (4×) and 108.0 mm³ (2×) and 75.0 mm³ and 171.5 mm³
Subcutaneous KAP CRCs; day 12 of treatment
  Tumor volume (mm³): 180.0 mm³ (2×) and 220.5 mm³ and 112.5 mm³ (3×) and 100.0 mm³ and 108.0 mm³ and 64.0 mm³ and 126.0 mm³

— paper PMC11864979, “First-in-class ultralong-target-residence-time p38α inhibitors as a mitosis-targeted therapy for colorectal cancer” (Nature Cancer, 2025)
